This is an account of results in ChEMBL document CHEMBL1201862, “PubChem BioAssay data set” (2004).

What all share (assay): DTP human tumour cell line panel, 48 h
For experiment [1], the system named is HCC 2998.
In experiment [2] the test system is HOP-18.
For experiment [3], the system named is MCF7.
Experiment [4] deals with XF498.
In experiment [5] the test system is RXF 631.
Experiment [6] concerns 786-0.
The subject of experiment [7] is LXFL 529.
The subject of experiment [8] is BT-549.
Experiment [9] relates to Hs-578T.

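Briefly, cells in 96-well plates were exposed to five compound concentrations for 48 h, and endpoints were estimated by linear interpolation. GI50 = concentration required for 50% inhibition of growth.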 The source made the active and inactive calls. Rule as the data show it: active = GI50 up to about 1.1 µM and inactive = higher. Bounds are passed on as bounds.

Regarding `CC1(C)N=C(N)N=C(N)N1c1ccc(OCCCOc2ccccc2)c(Cl)c1`, the GI50 in experiment [1] was 0.315 µM (active); in [2], 0.67 µM (active); in [3], 0.327 µM (active); in experiment [4] it was < 0.01 µM (active).

With `COc1cc(C2C(C(=O)O)=C(CO)Oc3cc4c(cc32)OCO4)cc(OC)c1OC` (stereo not drawn), the GI50 in experiment [2] was 77.1 µM (inactive); in [5], > 100 µM (inactive); in experiment [4] it was > 100 µM (inactive).

As to `COc1cc2c(oc(=O)c3c4occc4cc(OC)c23)c2cccc(OCc3ccccc3)c12`, the GI50 in experiment [6] was 41.4 µM (inactive); in [1], > 100 µM (inactive); in experiment [2], > 100 µM (inactive); in experiment [7], 64.7 µM (inactive); in [4] it was 42 µM (inactive).

Consider `CSC1=C(C)C(/C=N/Nc2ccc([N+](=O)[O-])cc2)=C(C)N(c2ccccc2)S1(=O)=O`, for which the GI50 in [6] was > 100 µM (inactive); in experiment [8], 20.8 µM (inactive); in experiment [1] it was 25.8 µM (inactive); in experiment [3] it was 32.4 µM (inactive).

Turning to `NCCCNCCSSCc1ccccc1CSSCCNCCCN`, the GI50 is 81.5 µM (inactive) in [1]; > 100 µM (inactive) in [2]; 30.4 µM (inactive) in experiment [7]; > 100 µM (inactive) in experiment [5]; 85.1 µM (inactive) in [4].

`N/N=C1\C(=O)N(c2ccc(Cl)c(Cl)c2)C(=O)C1C(=O)Nc1ccc(Cl)c(Cl)c1` (stereo not drawn): the GI50 is 89.5 µM (inactive) in experiment [6]; 62.4 µM (inactive) in experiment [1]; 21.6 µM (inactive) in experiment [2]; 46.5 µM (inactive) in experiment [7]; 59.2 µM (inactive) in experiment [5].

Regarding `CCC1(c2ccccc2)C(=O)N=C(c2ccccc2)N1CCc1ccccc1` (stereo not drawn), the GI50 in experiment [6], in [8], in experiment [1], in experiment [9] and in [3] was > 100 µM (inactive) each time.

With `C[C@]12CC[C@H](O)C=C1CC[C@@H]1[C@@H]2CC[C@]2(C)C(c3ccc(=O)oc3)CC[C@]12O` (stereo partly drawn), the 50% growth inhibitory concentration (GI50) in experiment [1] was 0.0372 µM (active); in experiment [2] it was 0.014 µM (active); in [3], 0.015 µM (active); in experiment [4], 0.0184 µM (active).

On to `CCOC(=O)C(NC(=O)Nc1ccccc1)(Nc1cccc(Cl)c1)C(F)(F)F` (stereo not drawn), for which the GI50 in experiment [6] is > 100 µM (inactive); in [8], > 100 µM (inactive); in experiment [1] it was > 100 µM (inactive); in experiment [9], 24.3 µM (inactive); in experiment [3], > 100 µM (inactive).

For `CN(C)c1ccc(N2C(=S)SC(=N\c3ccccc3)/C2=N/c2ccccc2)cc1`, the GI50 in [8], in experiment [1], in experiment [9] and in [3] was > 100 µM (inactive) each time.

As for `NC(=S)N/N=C1\c2ccccc2CCC1CCC1(O)CCc2ccccc2C1=O` (stereo not drawn), the GI50 in experiment [8] is 16.4 µM (inactive); in experiment [9] it was 16.1 µM (inactive); in experiment [3], 17.8 µM (inactive).

On to `C[S+](C)([O-])=Nn1c(=O)n2n(c1=O)[C@H]1CC[C@@H]2C1`, for which the GI50 in experiment [9] and in experiment [3] was > 100 µM (inactive) each time.

In the case of `COC(=O)C1=C(OC(=O)/C=C/c2ccc(Cl)cc2)C(C(=O)OC)[C@@]2(O)[C@@H](C(=O)OC)[C@H](C)C[C@@H]1[C@@H]2C(=O)OC` (stereo partly drawn), the GI50 in experiment [8] is 21.6 µM (inactive); in experiment [9], 3.9 µM (inactive).

Take `Clc1ccc(Cl)c(Nc2ccnc(SCc3ccccc3)n2)c1`: the GI50 in [6], in experiment [8], in experiment [9] and in experiment [3] was > 100 µM (inactive) each time.

Take `C=C1C(=O)OC2C1CC1OC2C(C)CCC/C(C)=C\CCC1(C)O` (stereo not drawn): the GI50 in experiment [1] was 20.3 µM (inactive); in [2] it was 10.6 µM (inactive); in experiment [3] it was 15.3 µM (inactive); in experiment [4], 12 µM (inactive).

Turning to `COC(=O)c1ccc(N/C=C(/C#N)c2ccsc2)cc1`, the GI50 is 11.1 µM (inactive) in experiment [6], 18.4 µM (inactive) in [1] and 12.8 µM (inactive) in [7].

As to `O=[N+]([O-])c1cc(Cl)cc2cc(Cl)cnc12`, the GI50 was > 100 µM (inactive) in experiment [6], > 100 µM (inactive) in experiment [8], > 100 µM (inactive) in [1] and 25.9 µM (inactive) in experiment [9].

For the compound `COc1ccc2nc3ccc(OC)cc3c([S+]([O-])CCCl)c2c1` (stereo not drawn), the GI50 in experiment [6] is 1.76 µM (inactive); in [8], 15.1 µM (inactive); in [1], 23.2 µM (inactive); in experiment [9], 2.24 µM (inactive); in experiment [3], 2.31 µM (inactive).

On to `CC12Nc3ccccc3C1=C(c1ccccc1)CC1C(=O)OC(=O)C12` (stereo not drawn), for which the GI50 in experiment [6], in experiment [1], in experiment [7], in [5] and in experiment [4] was > 100 µM (inactive) each time.

Consider `CC(C)c1ccccc1SCc1cc(=O)cc(CSc2ccccc2C(C)C)o1`, for which the values for the GI50 in [1], in [9] and in [3] were 30.3 µM (inactive), 13.5 µM (inactive) and 18.2 µM (inactive), respectively.

Turning to `O=NN(CCCl)C(=O)N[C@H]1CCCC[C@@H]1Cl`, the GI50 in experiment [6] was 37.8 µM (inactive); in [1], > 100 µM (inactive); in experiment [2], > 100 µM (inactive); in experiment [7] it was > 100 µM (inactive); in experiment [4] it was > 100 µM (inactive).

Regarding `COc1ccc2c(c1)c1cc(OC)ccc1n2CCCCOc1ccc(-c2c3ccccc3c(-c3ccc(OCCCCn4c5ccc(OC)cc5c5cc(OC)ccc54)cc3)c3ccccc23)cc1`, the GI50 in experiment [1] and in experiment [4] was > 100 µM (inactive) throughout.

As to `O=C(Nc1nc2ccc([N+](=O)[O-])cc2s1)C(=O)C(C(=O)c1ccccc1F)C1OC(=O)c2ccccc21` (stereo not drawn), the GI50 in experiment [1] is 24.9 µM (inactive); in [7] it was 34 µM (inactive); in [4], 48.3 µM (inactive).

As for `COc1ccc(C(=O)/C(Br)=C/C(=O)O)cc1`, the GI50 in [8] was 17.9 µM (inactive); in [1], 19.2 µM (inactive); in experiment [2], 45.8 µM (inactive); in [3], 9.75 µM (inactive); in [4] it was 4.28 µM (inactive).

Turning to `COc1cc(C2c3cc4c(cc3[C@@H](Nc3cnc5ccccc5c3)C3COC(=O)[C@H]23)OCO4)cc(OC)c1O` (stereo partly drawn), the concentration for 50% growth inhibition (GI50) was 0.794 µM (active) in experiment [1], 0.34 µM (active) in [2], 0.0834 µM (active) in [3] and 0.474 µM (active) in experiment [4].

Regarding `COc1ccc(/C=C2/C(=O)N(C(=O)c3ccccc3O)N=C2C)cc1OC`, the GI50 was 1.26 µM (inactive) in experiment [6]; 0.388 µM (active) in experiment [8]; > 24.3 µM (inactive) in [1]; 0.303 µM (active) in experiment [7]; 0.361 µM (active) in experiment [3]; 1.68 µM (inactive) in [4].

Consider `COC1=CC(=O)C=C(OC)C1=O` [2,6-DIMETHOXYQUINONE], for which the GI50 is 27.9 µM (inactive) in [1], 45.8 µM (inactive) in experiment [2], 17.7 µM (inactive) in experiment [3] and 2.99 µM (inactive) in [4].
